Experimental data: patent US20210380623A1, “PRODRUG GALACTOSIDE INHIBITOR OF GALECTINS” (GALECTO BIOTECH AB, priority 2018, published 2021)
Converted amounts (≈) assume the structure as drawn.

What was measured:
galectins = settings: cited from earlier work
Galectin-3 = Galectin-3 (Homo sapiens, UniProt P17931); assay: fluorescence anisotropy assay, inhibition of galectin / fluorescein tagged saccharide probe interaction; assay type: binding; settings: for Kd: fluorescence anisotropy; for affinity towards the corresponding galectin (in words): pro-drug itself
Chain of Galectin-3 (P17931 whole entry): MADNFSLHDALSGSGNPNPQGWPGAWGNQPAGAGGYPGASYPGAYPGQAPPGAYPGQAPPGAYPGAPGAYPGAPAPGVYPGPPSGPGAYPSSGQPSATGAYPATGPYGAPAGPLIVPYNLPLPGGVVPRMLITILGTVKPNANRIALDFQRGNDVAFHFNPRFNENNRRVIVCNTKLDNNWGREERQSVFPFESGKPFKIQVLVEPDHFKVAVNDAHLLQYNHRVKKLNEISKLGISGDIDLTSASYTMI

aqueous solubility = assay type: physicochemical; settings: water
[1] = mouse PK experiments, plasma exposure of Ref 1 after p.o. administration; assay type: in vivo; settings: for exposure in mice PK after per oral administration: mouse, p.o., 20, 40, 80 and 160 mg/kg, plasma exposure of Ref 1

SMILES	Kd (Galectin-3) [µM]	solubility (aqueous solubility) [µg/mL]	further results
O=C[C@H](O)[C@@H](O)[C@@H](O)[C@H](O)CO [D-galactose]			affinity, times lower than lactose (galectins; relative to lactose): 50-100 times
O=P(O)(O)OC[C@H]1O[C@H](Sc2cncc(Br)c2)[C@H](O)[C@@H](n2cc(-c3cc(F)c(F)c(F)c3)nn2)[C@H]1O [Example 1, 5-Bromopyridin-3-yl 3-deoxy-3-[4-(3,4,5-trifluorophenyl)-1H-1,2,3-triazol-1-yl]-6-O-phospho-1-thio-α-D-galactopyranoside]	35	8500 (≈ 13.9 mM)	affinity towards the corresponding galectin (in words) (Galectin-3): low
O=S(=O)(O)OC[C@H]1O[C@H](Sc2cncc(Br)c2)[C@H](O)[C@@H](n2cc(-c3cc(F)c(F)c(F)c3)nn2)[C@H]1O [Example 6, 5-Bromopyridin-3-yl 3-Deoxy-3-[4-(3,4,5-trifluorophenyl)-1H-1,2,3-triazol-1-yl]-6-O-sulfo-1-thio-α-D-galactopyranoside]	27	9600 (≈ 15.7 mM)	
O=P(O)(O)OCOC[C@H]1O[C@H](Sc2cncc(Br)c2)[C@H](O)[C@@H](n2cc(-c3cc(F)c(F)c(F)c3)nn2)[C@H]1O [Example 7, 5-Bromopyridin-3-yl 3-deoxy-3-[4-(3,4,5-trifluorophenyl)-1H-1,2,3-triazol-1-yl]-6-O-[(phosphonooxy)methyl]-1-thio-α-D-galactopyranoside]	15	> 10000	affinity towards the corresponding galectin (in words) (Galectin-3): low; exposure in mice PK after per oral administration [1]: dose correlated exposure
O=P(O)(O)OCO[C@@H]1[C@@H](n2cc(-c3cc(F)c(F)c(F)c3)nn2)[C@@H](O)[C@@H](CO)O[C@@H]1Sc1cncc(Br)c1 [Example 8, 5-Bromopyridin-3-yl 3-deoxy-3-[4-(3,4,5-trifluorophenyl)-1H-1,2,3-triazol-1-yl]-2-O-[(phosphonooxy)methyl]-1-thio-α-D-galactopyranoside]	0.01	> 10000	exposure in mice PK after per oral administration [1]: dose correlated exposure
O=P(O)(O)OCO[C@@H]1[C@@H](n2cc(-c3cc(F)c(Cl)c(F)c3)nn2)[C@@H](O)[C@@H](CO)O[C@@H]1Sc1cncc(Br)c1 [Example 9, 5-Bromopyridin-3-yl 3-[4-(4-chloro-3,5-difluorophenyl)-1H-1,2,3-triazol-1-yl]-3-deoxy-2-O-[(phosphonooxy)methyl]-1-thio-α-D-galactopyranoside]	0.007	800 (≈ 1.21 mM)	
OC[C@H]1O[C@H](Sc2cncc(Br)c2)[C@H](O)[C@@H](n2cc(-c3cc(F)c(F)c(F)c3)nn2)[C@H]1O [Ref 1, 5-Bromopyridin-3-yl 3-deoxy-3-[4-(3,4,5-trifluorophenyl)-1H-1,2,3-triazol-1-yl]-1-thio-α-D-galactopyranoside, reference compound]		7 (≈ 0.0131 mM)	oral availability ([1]; mouse PK, some formulations, dosed above 10 mg/kg): limited oral availability
OC[C@H]1O[C@H](Sc2cncc(Br)c2)[C@H](O)[C@@H](n2cc(-c3cc(F)c(Cl)c(F)c3)nn2)[C@H]1O [Ref 3, 5-Bromopyridin-3-yl 3-deoxy-3-[4-(4-chloro-3,5-difluorophenyl)-1H-1,2,3-triazol-1-yl]-1-thio-α-D-galactopyranoside, reference compound]		7 (≈ 0.0127 mM)	
OC[C@H]1O[C@@H](O[C@H]2[C@H](O)[C@@H](O)C(O)O[C@@H]2CO)[C@H](O)[C@@H](O)[C@H]1O (stereo partly shown) [lactose]			Kd (galectins; read-out: Kd, all galectins): 500 to 1000 µM

More lines, main results first:

Kd (Galectin-3) [µM]	solubility (aqueous solubility) [µg/mL]	SMILES	further results
0.006	9800 (≈ 16 mM)	O=P(O)(O)O[C@@H]1[C@@H](n2cc(-c3cc(F)c(F)c(F)c3)nn2)[C@@H](O)[C@@H](CO)O[C@@H]1Sc1cncc(Br)c1 [Example 2, 5-Bromopyridin-3-yl 3-deoxy-3-[4-(3,4,5-trifluorophenyl)-1H-1,2,3-triazol-1-yl]-2-O-phospho-1-thio-α-D-galactopyranoside]	
0.007		O=P(O)(O)O[C@@H]1[C@@H](n2cc(-c3cc(F)c(F)c(F)c3)nn2)[C@@H](O)[C@@H](CO)O[C@@H]1Sc1ccc(Cl)c(Cl)c1 [Example 3, 3,4-Dichlorophenyl 3-deoxy-3-[4-(3,4,5-trifluorophenyl)-1H-1,2,3-triazol-1-yl]-2-O-phospho-1-thio-α-D-galactopyranoside]	
0.014		O=S(=O)(O)OC1C(n2cc(-c3cc(F)c(F)c(F)c3)nn2)[C@@H](O)C(CO)O[C@@H]1Sc1ccc(Cl)c(Cl)c1 (stereo partly drawn) [Example 4, 3,4-Dichlorphenyl 3-Deoxy-3-[4-(3,4,5-trifluorophenyl)-1H-1,2,3-triazol-1-yl]-2-O-sulfo-1-thio-α-D-galactopyranoside]	
0.004		O=S(=O)(O)O[C@@H]1[C@@H](n2cc(-c3cc(F)c(F)c(F)c3)nn2)[C@@H](O)[C@@H](CO)O[C@@H]1Sc1cncc(Br)c1 [Example 5, 5-Bromopyridin-3-yl 3-Deoxy-3-[4-(3,4,5-trifluorophenyl)-1H-1,2,3-triazol-1-yl]-2-O-sulfo-1-thio-α-D-galactopyranoside]	
	37 (≈ 0.0708 mM)	OC[C@H]1O[C@H](Sc2ccc(Cl)c(Cl)c2)[C@H](O)[C@@H](n2cc(-c3cc(F)c(F)c(F)c3)nn2)[C@H]1O [Ref 2, 3,4-Dichlorophenyl 3-deoxy-3-[4-(3,4,5-trifluorophenyl)-1H-1,2,3-triazol-1-yl]-1-thio-α-D-galactopyranoside, reference compound]	
